US8232406B2, “c-MET protein kinase inhibitors” (Vertex Pharmaceuticals Incorporated, priority 2006, dated 2012)

Target: c-MET (Homo sapiens, UniProt P08581)
Assay: Ki determination for the inhibition of c-MET (standard radiometric 33P-ATP kinase assay, polyE4Y substrate)
Type: biochemical
Settings: 1.0 nM c-Met, 35 μM ATP, 0.5 mg/mL polyE4Y, 20 min; competitive tight-binding fit
Description: Ki Determination for the Inhibition of c-MET
Compounds of the invention were screened for their ability to inhibit c-MET kinase activity using a standard radiometric assay. Briefly, in this kinase assay the transfer of the terminal ^33P-phosphate in ^33P-ATP to substrate polyE4Y is interrogated. The assay was carried out in 96-well plates to a final volume of 100 μL per well containing 1.0 nM c-Met, 100 mM HEPES (pH 7.5), 10 mM MgCl2, 25 mM NaCl, 0.01% BSA, 1 mM DTT, 0.5 mg/mL polyE4Y, and 35 μM ATP. Accordingly, compounds of the invention were dissolved in DMSO to make 10 mM initial stock solutions. Serial dilutions in DMSO were then made to obtain the final solutions for the assay. A 1.5 μL aliquot of DMSO or inhibitor in DMSO was added to each well. The reaction was initiated by the addition of ^33P-ATP and polyE4Y (obtained from Sigma). After 20 min, the reaction was quenched with 50 μL of 30% trichloroacetic acid (TCA) containing 4 mM ATP. The reaction mixture was transferred to the 0.66 mm GF filter plates (Corning) and washed three times with 5% TCA. Following the addition of 50 μL of Ultimate Gold™ high efficiency scintillant (Packard Bioscience), the samples were counted in a Packard TopCount NXT Microplate Scintillation and Luminescence Counter (Packard BioScience). The Ki values were calculated using Microsoft Excel Solver macros to fit the data to the kinetic model for competitive tight-binding inhibition.

c-MET, sequence (P08581 25-1390): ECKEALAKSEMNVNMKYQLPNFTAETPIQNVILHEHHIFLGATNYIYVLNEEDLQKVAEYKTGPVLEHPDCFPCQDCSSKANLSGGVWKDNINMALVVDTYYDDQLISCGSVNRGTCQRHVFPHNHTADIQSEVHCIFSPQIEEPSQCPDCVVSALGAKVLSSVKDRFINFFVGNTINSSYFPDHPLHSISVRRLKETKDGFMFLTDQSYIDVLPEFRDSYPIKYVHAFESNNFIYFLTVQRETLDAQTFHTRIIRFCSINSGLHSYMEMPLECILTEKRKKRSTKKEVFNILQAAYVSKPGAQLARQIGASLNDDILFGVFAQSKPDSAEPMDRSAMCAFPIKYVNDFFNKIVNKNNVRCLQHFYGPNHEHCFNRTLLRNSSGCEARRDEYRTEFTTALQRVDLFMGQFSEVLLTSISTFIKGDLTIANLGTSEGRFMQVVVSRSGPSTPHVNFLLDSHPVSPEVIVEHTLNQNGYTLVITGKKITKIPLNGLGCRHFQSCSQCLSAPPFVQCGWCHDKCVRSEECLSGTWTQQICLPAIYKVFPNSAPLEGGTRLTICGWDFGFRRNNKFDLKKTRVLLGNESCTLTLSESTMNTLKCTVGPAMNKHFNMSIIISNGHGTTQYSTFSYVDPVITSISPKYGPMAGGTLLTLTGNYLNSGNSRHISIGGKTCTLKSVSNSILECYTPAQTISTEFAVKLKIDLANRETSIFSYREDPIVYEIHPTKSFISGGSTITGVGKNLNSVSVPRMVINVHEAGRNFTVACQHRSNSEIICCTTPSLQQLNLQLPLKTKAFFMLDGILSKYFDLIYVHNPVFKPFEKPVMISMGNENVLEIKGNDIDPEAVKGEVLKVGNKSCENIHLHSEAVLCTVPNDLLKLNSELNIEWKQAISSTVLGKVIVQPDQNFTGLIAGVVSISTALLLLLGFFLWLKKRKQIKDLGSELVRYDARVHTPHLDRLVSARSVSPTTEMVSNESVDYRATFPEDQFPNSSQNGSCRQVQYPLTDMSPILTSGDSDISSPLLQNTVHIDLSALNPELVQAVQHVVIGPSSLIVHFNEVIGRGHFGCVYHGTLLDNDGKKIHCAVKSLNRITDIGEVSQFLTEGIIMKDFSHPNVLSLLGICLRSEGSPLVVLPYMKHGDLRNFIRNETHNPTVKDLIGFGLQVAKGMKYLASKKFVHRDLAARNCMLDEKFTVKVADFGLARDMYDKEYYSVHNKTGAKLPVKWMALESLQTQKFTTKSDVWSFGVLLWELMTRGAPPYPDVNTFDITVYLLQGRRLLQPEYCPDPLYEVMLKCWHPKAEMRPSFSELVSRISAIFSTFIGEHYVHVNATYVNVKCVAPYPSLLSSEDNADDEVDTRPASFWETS

Compound	Ki [nM]
Nc1ncc(C2=CCN(C(=O)O[C@H]3CCOC3)CC2)cc1-c1nnnn1-c1cccc(F)c1F [I-A-526]	≤ 100
Nc1ncc(-c2cnn(C3CCNCC3)c2)cc1-c1nnnn1-c1c(Cl)cccc1Cl [I-A-631]	≤ 100
CCCC(=O)Nc1ccc(-c2cnc(N)c(-c3nnnn3-c3cccc(F)c3F)c2)cc1 [I-A-195]	100 to 1000
CN(C)Cc1ccc(-c2cnc(N)c(-c3nnnn3-c3cc(Cl)cc(Cl)c3)c2)cc1 [I-A-590]	100 to 1000
Nc1ncc(-c2ccc(CN3CCN(CCO)CC3)cc2)cc1-c1nnnn1-c1cccc(Cl)c1Cl [I-A-104]	≤ 100
Nc1ncc(-c2ccc(CN3CCC[C@@H]3CN3CCCC3)cc2)cc1-c1nnnn1-c1cccc(Cl)c1Cl [I-A-118]	≤ 100
CC(=O)c1ccc(-c2cnc(N)c(-c3nnnn3-c3cccc(Cl)c3Cl)c2)cc1 [I-A-88]	100 to 1000
Nc1ncc(-c2ccc(C3NC(=O)NC3=O)cc2)cc1-c1nnnn1-c1cccc(F)c1F (centres unmarked) [I-A-257]	≤ 100
Nc1ncc(-c2ccn(C3CCNCC3)c2)nc1-c1nnnn1-c1cccc(F)c1F [I-A-534]	≤ 100
NC(=O)Nc1ccc(-c2cnc(N)c(-c3nnnn3-c3cccc(F)c3F)c2)cc1 [I-A-183]	≤ 100
Nc1ncc(-c2cnn(C3CCNCC3)c2)cc1-c1nc2cccnc2n1-c1cccc(F)c1F [I-D-7]	≤ 100
Cn1cc(-c2cccc(Cl)c2Cl)c(-c2cc(-c3ccc(N4CCCC4)nc3)cnc2N)n1 [I-B-20]	100 to 1000
CCN(C)Cc1ccc(-c2cnc(N)c(-c3nnnn3-c3cccc(F)c3F)c2)cc1 [I-A-149]	≤ 100
CC(=O)Nc1ccc(-c2cnc(N)c(-c3nc4cnccc4n3-c3cccc(F)c3F)c2)cc1 [I-D-13]	≤ 100
COc1c(F)cccc1-n1nnnc1-c1cc(-c2cccc(NC(C)=O)c2)cnc1N [I-A-562]	100 to 1000
COC(=O)C(C)NC(=O)Nc1ccc(-c2cnc(N)c(-c3nnnn3-c3cccc(F)c3F)c2)cc1 (centres unmarked) [I-A-331]	≤ 100
CC1CCC(C)N1Cc1ccc(-c2cnc(N)c(-c3nnnn3-c3cccc(F)c3F)c2)cc1 (centres unmarked) [I-A-210]	≤ 100
Nc1ncc(-c2ccc(CN3CCCC3)cc2)cc1-c1nnnn1-c1cccc(F)c1Cl [I-A-386]	100 to 1000
Nc1ncc(-c2ccc(N3CCCC3=O)cc2)cc1-c1nnnn1-c1cccc(F)c1F [I-A-189]	≤ 100
COc1cc(-c2cnc(N)c(-c3nnnn3-c3cccc(F)c3F)c2)cc(OC)c1OC [I-A-296]	100 to 1000
Nc1ncc(-c2cnc3ccccc3c2)nc1-c1nncn1-c1cccc(F)c1F [I-A-33]	100 to 1000
CC(=O)Nc1cc(-c2cnc(N)c(-c3nnnn3-c3cccc(Cl)c3F)c2)ccc1CN1CCCC1 [I-A-398]	≤ 100
Nc1ncc(-c2cnn(C3CCNCC3)c2)cc1-c1nc2cc(F)ccc2n1-c1cccc(Cl)c1F [I-D-19]	≤ 100
Nc1ncc(-c2ccc(N3CCCC3)nc2)nc1-c1nnc(O)n1-c1cccc(F)c1F [I-A-18]	100 to 1000
Nc1ncc(-c2cnn(CC(O)CO)c2)cc1-c1nnnn1-c1cccc(F)c1F (centres unmarked) [I-A-368]	≤ 100
COCCN1CCC(n2cc(-c3cnc(N)c(-c4nncn4-c4cccc(F)c4F)c3)cn2)CC1 [I-A-476]	≤ 100

Compound	Ki [nM]
Cn1cc(-c2cccc(Cl)c2Cl)c(-c2cc(-c3cccnc3)cnc2N)n1 [I-B-16]	100 to 1000
Cc1nnc(-c2cnc(N)c(-c3nnnn3-c3cccc(F)c3F)c2)s1 [I-A-494]	100 to 1000
Nc1ncc(-c2ccc3c(c2)OCCO3)cc1-c1nnnn1-c1cccc(F)c1F [I-A-235]	≤ 100
Nc1ncc(-c2cccnc2)cc1-c1nnnn1-c1c(Cl)cccc1Cl [I-A-609]	100 to 1000
Nc1ncc(-c2ccc(CN3CCCC3)cc2)cc1-c1nnnn1-c1cc(F)cc(F)c1Cl [I-A-601]	≤ 100
Nc1ncc(-c2cccs2)cc1-c1nnnn1-c1cccc(F)c1F [I-A-487]	≤ 100
Nc1ncc(-c2ccc(CN3CC[C@H](O)C3)cc2)cc1-c1nnnn1-c1cccc(Cl)c1Cl [I-A-120]	≤ 100
Nc1ncc(-c2ccco2)cc1-c1nnnn1-c1cccc(F)c1F [I-A-488]	100 to 1000
Nc1ncc(-c2ccc(F)nc2)cc1-c1nnnn1-c1cccc(F)c1F [I-A-318]	100 to 1000
Nc1ncc(C2=CCCNCC2)cc1-c1nnnn1-c1cccc(F)c1F [I-A-646]	100 to 1000
CC(=O)Nc1ccc(-c2cnc(N)c(-c3nnnn3-c3cc(Cl)cc(Cl)c3)c2)cc1 [I-A-587]	100 to 1000
CC1(C)CN(c2ccc(-c3cnc(N)c(-c4nnnn4-c4cccc(F)c4F)c3)cc2)C1=O [I-A-357]	100 to 1000
C[C@H](c1ccc(-c2cnc(N)c(-c3nnnn3-c3cccc(F)c3F)c2)cc1)N1CCCC1 [I-A-212]	≤ 100
Nc1ncc(-c2cccc(Cl)c2)cc1-c1nnnn1-c1cccc(F)c1F [I-A-225]	100 to 1000
COCCC(=O)N1CC=C(c2cnc(N)c(-c3nnnn3-c3cccc(F)c3F)c2)CC1 [I-A-514]	≤ 100
CSc1ccccc1-c1cnc(N)c(-c2nnnn2-c2cccc(F)c2F)c1 [I-A-252]	100 to 1000
CC(=O)c1ccc(-c2cnc(N)c(-c3nnnn3-c3cccc(F)c3F)c2)s1 [I-A-179]	100 to 1000
Nc1ncc(-c2cnn(CCN3CCCC3)c2)cc1-c1nnnn1-c1cccc(F)c1F [I-A-407]	≤ 100
Nc1ncc(-c2ccncc2)nc1-c1nnc(O)n1-c1cccc(F)c1F [I-A-15]	100 to 1000
Nc1ncc(-c2cnn(C3CCNCC3)c2)cc1-c1nnnn1-c1cc(F)ccc1Cl [I-A-637]	100 to 1000
CN(C)CC(=O)Nc1ccc(-c2cnc(N)c(-c3nnnn3-c3cccc(F)c3F)c2)cc1 [I-A-191]	≤ 100
COC(=O)C(c1ccc(-c2cnc(N)c(-c3nnnn3-c3cccc(F)c3F)c2)cc1)N1CCCC1 (centres unmarked) [I-A-208]	≤ 100
CN(C)c1ccc(-c2cnc(N)c(-c3nnnn3-c3cccc(F)c3F)c2)cc1 [I-A-234]	≤ 100
Nc1ncc(C2=CCN(C(=O)[C@@H]3CCCN3)CC2)cc1-c1nnnn1-c1cccc(F)c1F [I-A-504]	≤ 100
Nc1ncc(-c2nc3c(s2)CNCC3)cc1-c1nnnn1-c1cccc(Cl)c1F [I-A-533]	100 to 1000
Nc1ncc(-c2cnn(C3CCNCC3)c2)cc1-c1nnnn1-c1cccc(Cl)c1F [I-A-626]	≤ 100

Compound	Ki [nM]
CC(=O)Nc1cccc(-c2cnc(N)c(-c3nnnn3-c3cc(Cl)ccc3F)c2)c1 [I-A-568]	100 to 1000
CC(=O)Nc1cccc(-c2cnc(N)c(-c3nnnn3-c3cc(F)cc(F)c3Cl)c2)c1 [I-A-570]	100 to 1000
CC(=O)N1CCC(n2cc(-c3cnc(N)c(-c4nnnn4-c4cccc(F)c4Cl)c3)cn2)CC1 [I-A-392]	100 to 1000
C[C@@H](c1ccc(-c2cnc(N)c(-c3nnnn3-c3cccc(F)c3F)c2)cc1)N1CCCC1 [I-A-211]	≤ 100
COCCOC(=O)Nc1ccc(-c2cnc(N)c(-c3nnnn3-c3cccc(F)c3F)c2)cc1 [I-A-277]	≤ 100
Nc1ncc(-c2cc3c(s2)CCNCC3)cc1-n1nnnc1-c1cccc(F)c1F [I-E-2]	100 to 1000
CN(C)Cc1cccc(-c2cnc(N)c(-c3nnnn3-c3cccc(Cl)c3Cl)c2)c1 [I-A-123]	≤ 100
Nc1ncc(-c2cccnc2)cc1-c1nnsc1-c1cccc(Cl)c1Cl [I-C-1]	100 to 1000
CC(C)OC(=O)N1CC=C(c2cnc(N)c(-c3nnnn3-c3cccc(F)c3F)c2)CC1 [I-A-508]	≤ 100
Nc1ncc(-c2ccc(C3CCNCC3)cc2)cc1-n1nnnc1-c1cccc(F)c1F [I-E-3]	100 to 1000
Cc1c(Cl)cccc1-n1nnnc1-c1cc(-c2ccc(CN(C)C)cc2)cnc1N [I-A-578]	100 to 1000
Nc1ncc(-c2cnn(C3CCCNCC3)c2)cc1-c1nnnn1-c1cccc(F)c1F (centres unmarked) [I-A-428]	≤ 100
Nc1ncc(-c2ccc3c(c2)C(=O)C(=O)N3)cc1-c1nnnn1-c1cccc(F)c1F [I-A-204]	≤ 100
CC(=O)Nc1cccc(-c2cnc(N)c(-c3nnnn3-c3cccc(F)c3F)c2)c1 [I-A-139]	≤ 100
CC(=O)c1cccc(-c2cnc(N)c(-c3nnnn3-c3cccc(F)c3F)c2)c1 [I-A-218]	≤ 100
CC1(C)CN(c2cccc(-c3cnc(N)c(-c4nnnn4-c4cccc(F)c4F)c3)c2)C1=O [I-A-324]	100 to 1000
Nc1ncc(-c2cccc(NC(=O)CN3CCCC3)c2)cc1-c1nnnn1-c1cccc(F)c1F [I-A-259]	≤ 100
CN(C(=O)Nc1ccc(-c2cnc(N)c(-c3nnnn3-c3cccc(F)c3F)c2)cc1)c1ccccc1 [I-A-279]	100 to 1000
Nc1ncc(-c2ccc(C3CCOC(=O)N3)cc2)cc1-c1nnnn1-c1cccc(F)c1F (centres unmarked) [I-A-325]	≤ 100
Nc1ncc(-c2ccc(N3CCNCC3)cc2)cc1-c1nc2cnccc2n1-c1cccc(F)c1F [I-D-23]	≤ 100
CN(C)Cc1ccc(-c2cnc(N)c(-c3nc4cc(F)ccc4n3-c3cccc(Cl)c3F)c2)cc1 [I-D-22]	100 to 1000
Nc1ncc(-c2ccc(N3CCCC3)nc2)cc1-c1nnnn1-c1cccc(F)c1F [I-A-64]	≤ 100
CC(c1ccc(-c2cnc(N)c(-c3nnnn3-c3cccc(Cl)c3Cl)c2)cc1)N(C)C (centres unmarked) [I-A-100]	≤ 100
Nc1ncc(-c2cccc(NC(=O)Nc3cccs3)c2)cc1-c1nnnn1-c1cccc(F)c1F [I-A-275]	100 to 1000
Nc1ncc(C2=CCN(C(=O)C[C@@H]3CCCN3)CC2)cc1-c1nnnn1-c1cccc(F)c1F [I-A-505]	≤ 100
